Calls of active or inactive are those of the source.
Legend:
[1] = target: T1, Ubiquitin-conjugating enzyme E2 N (Homo sapiens, UniProt P61088); assay type: functional;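 also: Dose-response confirmation in a TR-FRET assay detecting UBC13-driven polyubiquitin chain formation, inhibition measured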
T1 sequence (P61088 whole entry): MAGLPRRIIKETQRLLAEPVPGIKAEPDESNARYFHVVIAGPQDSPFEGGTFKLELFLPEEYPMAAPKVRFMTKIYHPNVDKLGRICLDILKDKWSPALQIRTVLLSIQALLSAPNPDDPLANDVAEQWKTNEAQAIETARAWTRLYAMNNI

[2] = target: T2, High affinity choline transporter 1 (Homo sapiens, UniProt Q9GZV3); experiment: human choline transporter blockers, potency – cell-based, 5-point CRC, membrane potential dye, dose response (AID 504840); assay type: functional
T2 sequence (Q9GZV3 whole entry): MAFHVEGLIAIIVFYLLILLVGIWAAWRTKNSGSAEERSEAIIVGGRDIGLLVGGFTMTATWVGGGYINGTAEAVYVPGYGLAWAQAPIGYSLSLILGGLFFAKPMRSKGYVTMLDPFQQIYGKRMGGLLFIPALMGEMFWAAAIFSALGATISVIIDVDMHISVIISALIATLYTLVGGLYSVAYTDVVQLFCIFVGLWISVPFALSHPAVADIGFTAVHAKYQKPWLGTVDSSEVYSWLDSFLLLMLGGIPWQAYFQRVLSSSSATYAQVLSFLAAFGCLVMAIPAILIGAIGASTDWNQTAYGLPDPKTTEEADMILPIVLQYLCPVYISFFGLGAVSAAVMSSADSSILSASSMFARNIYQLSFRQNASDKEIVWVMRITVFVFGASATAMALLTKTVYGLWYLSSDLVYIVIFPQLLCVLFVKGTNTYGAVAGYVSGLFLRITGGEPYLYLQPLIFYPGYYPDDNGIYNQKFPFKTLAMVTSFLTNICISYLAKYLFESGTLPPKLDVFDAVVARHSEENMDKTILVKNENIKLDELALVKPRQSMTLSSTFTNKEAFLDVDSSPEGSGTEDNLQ

[3] = test system: H9c2; experiment: cells; assay type: functional, cell-based; details: Rattus norvegicus, H9c2, Myocardium;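 also: confirmatory concentration-response retest of ultra-high-throughput screening hits for modulation of myocardial damage; cell death induced by hydrogen peroxide oxidative stress; compound pretreatment for 60 min then peroxide exposure for 2 h; potency is for protecting the cells against peroxide damage rather than for killing them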
[4] = blockers of HIV-1 envelope-mediated cell-cell fusion – cherry-pick, dose response (AID 652057); assay type: functional, cell-based
[5] = blockers of HIV-1 ZM109 envelope-driven cell-cell fusion – HeLa effector, CEM target cells, luciferase, cherry-pick, dose response (AID 652058); assay type: functional, cell-based;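 also: luciferase signal from HIV-1 Env mediated cell-cell fusion of effector and target cells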
[6] = off-target signal loss in HeLa-CEM21 co-culture – HeLa F-luc CTL cells, cherry-picked, counter-screen for HIV-1 Env fusion inhibitor project, dose response (AID 652040); assay type: functional, cell-based;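 also: potency for signal decrease marking cytotoxic or nonspecific inhibition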
[7] = HIV-1 AD8 envelope cell-cell fusion blockers – cherry-pick, dose response (AID 652062); assay type: functional, cell-based;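 also: luciferase signal from cell-cell fusion driven by HIV-1 clade B AD8 Env; potency is for inhibitors of fusion seen as a drop in luminescence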
[8] = target: T3, Small ubiquitin-related modifier 1 (Homo sapiens, UniProt P63165); experiment: SUMO1 protein interaction blockers, potency – biochemical, fluorescence polarization, uHTS hits, dose response (AID 624382); assay type: functional; details: read-out: IC50_Mean
T3 sequence (P63165 whole entry): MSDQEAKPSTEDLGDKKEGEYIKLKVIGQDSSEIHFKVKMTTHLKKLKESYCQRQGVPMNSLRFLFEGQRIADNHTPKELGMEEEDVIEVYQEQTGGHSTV

[9] = target: T3, Small ubiquitin-related modifier 1; experiment: SUMO1 protein-protein binding blockers, potency – biochemical, FRET, dose response (AID 624383); assay type: functional; details: read-out: IC50_Mean
[10] = target: Genome polyprotein (dengue virus type 2, UniProt P29990); experiment: flavivirus cap methylation enzyme inhibition – biochemical, confirmation dose response, primary screen (AID 588689); assay type: functional
Genome polyprotein, sequence (P29990 2492-3391 limits assumed): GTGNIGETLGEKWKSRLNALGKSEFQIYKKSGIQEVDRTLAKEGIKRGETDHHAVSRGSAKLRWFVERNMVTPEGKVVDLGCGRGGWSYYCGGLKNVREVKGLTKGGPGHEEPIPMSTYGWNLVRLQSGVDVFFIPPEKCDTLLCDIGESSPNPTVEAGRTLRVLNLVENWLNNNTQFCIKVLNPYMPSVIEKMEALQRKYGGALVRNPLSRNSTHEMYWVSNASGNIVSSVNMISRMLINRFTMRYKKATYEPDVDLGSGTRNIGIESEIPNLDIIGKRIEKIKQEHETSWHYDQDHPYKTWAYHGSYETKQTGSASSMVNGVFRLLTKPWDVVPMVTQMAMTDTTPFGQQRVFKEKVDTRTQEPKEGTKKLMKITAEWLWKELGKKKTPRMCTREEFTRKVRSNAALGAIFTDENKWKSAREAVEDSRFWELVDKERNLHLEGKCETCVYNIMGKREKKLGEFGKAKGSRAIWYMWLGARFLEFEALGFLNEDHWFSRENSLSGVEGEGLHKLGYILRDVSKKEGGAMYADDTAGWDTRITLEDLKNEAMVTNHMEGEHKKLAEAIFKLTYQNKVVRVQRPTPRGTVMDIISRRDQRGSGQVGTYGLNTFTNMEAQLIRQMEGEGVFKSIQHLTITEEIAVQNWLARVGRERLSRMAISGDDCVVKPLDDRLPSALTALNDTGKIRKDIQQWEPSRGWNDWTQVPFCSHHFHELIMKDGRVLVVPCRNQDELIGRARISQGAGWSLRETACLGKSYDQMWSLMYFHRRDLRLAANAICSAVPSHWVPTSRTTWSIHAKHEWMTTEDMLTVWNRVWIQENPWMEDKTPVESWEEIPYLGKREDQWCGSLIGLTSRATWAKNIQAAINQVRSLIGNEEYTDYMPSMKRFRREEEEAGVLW

[11] = target: T4, Rac GTPase-activating protein 1 (Homo sapiens, UniProt Q9H0H5); experiment: blockers of MgcRacGAP-driven Rac1 GTP hydrolysis – biochemical, ADP Hunter fluorescence, primary and confirmatory, confirmation (AID 624330); assay type: functional
T4 sequence (Q9H0H5 whole entry): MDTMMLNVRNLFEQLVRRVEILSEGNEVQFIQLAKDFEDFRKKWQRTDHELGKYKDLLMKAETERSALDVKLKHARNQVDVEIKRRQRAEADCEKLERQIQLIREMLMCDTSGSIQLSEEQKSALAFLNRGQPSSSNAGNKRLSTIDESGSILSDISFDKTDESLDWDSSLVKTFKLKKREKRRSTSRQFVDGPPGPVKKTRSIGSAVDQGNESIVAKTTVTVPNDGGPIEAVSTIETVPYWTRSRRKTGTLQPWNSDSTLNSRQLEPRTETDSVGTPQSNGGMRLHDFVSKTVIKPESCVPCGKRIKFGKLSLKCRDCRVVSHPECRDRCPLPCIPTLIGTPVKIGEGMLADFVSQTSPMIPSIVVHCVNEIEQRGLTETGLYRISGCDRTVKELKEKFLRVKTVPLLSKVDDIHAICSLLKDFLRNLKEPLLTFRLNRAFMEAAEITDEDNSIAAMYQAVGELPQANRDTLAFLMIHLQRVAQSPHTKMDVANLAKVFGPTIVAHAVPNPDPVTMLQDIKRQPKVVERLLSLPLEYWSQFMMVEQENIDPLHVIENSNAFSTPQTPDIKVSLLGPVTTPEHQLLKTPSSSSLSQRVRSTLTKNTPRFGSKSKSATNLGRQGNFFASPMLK

[12] = target: T5, Histone-lysine N-methyltransferase NSD2 (Homo sapiens, UniProt O96028); assay type: biochemical
T5 sequence (O96028 whole entry): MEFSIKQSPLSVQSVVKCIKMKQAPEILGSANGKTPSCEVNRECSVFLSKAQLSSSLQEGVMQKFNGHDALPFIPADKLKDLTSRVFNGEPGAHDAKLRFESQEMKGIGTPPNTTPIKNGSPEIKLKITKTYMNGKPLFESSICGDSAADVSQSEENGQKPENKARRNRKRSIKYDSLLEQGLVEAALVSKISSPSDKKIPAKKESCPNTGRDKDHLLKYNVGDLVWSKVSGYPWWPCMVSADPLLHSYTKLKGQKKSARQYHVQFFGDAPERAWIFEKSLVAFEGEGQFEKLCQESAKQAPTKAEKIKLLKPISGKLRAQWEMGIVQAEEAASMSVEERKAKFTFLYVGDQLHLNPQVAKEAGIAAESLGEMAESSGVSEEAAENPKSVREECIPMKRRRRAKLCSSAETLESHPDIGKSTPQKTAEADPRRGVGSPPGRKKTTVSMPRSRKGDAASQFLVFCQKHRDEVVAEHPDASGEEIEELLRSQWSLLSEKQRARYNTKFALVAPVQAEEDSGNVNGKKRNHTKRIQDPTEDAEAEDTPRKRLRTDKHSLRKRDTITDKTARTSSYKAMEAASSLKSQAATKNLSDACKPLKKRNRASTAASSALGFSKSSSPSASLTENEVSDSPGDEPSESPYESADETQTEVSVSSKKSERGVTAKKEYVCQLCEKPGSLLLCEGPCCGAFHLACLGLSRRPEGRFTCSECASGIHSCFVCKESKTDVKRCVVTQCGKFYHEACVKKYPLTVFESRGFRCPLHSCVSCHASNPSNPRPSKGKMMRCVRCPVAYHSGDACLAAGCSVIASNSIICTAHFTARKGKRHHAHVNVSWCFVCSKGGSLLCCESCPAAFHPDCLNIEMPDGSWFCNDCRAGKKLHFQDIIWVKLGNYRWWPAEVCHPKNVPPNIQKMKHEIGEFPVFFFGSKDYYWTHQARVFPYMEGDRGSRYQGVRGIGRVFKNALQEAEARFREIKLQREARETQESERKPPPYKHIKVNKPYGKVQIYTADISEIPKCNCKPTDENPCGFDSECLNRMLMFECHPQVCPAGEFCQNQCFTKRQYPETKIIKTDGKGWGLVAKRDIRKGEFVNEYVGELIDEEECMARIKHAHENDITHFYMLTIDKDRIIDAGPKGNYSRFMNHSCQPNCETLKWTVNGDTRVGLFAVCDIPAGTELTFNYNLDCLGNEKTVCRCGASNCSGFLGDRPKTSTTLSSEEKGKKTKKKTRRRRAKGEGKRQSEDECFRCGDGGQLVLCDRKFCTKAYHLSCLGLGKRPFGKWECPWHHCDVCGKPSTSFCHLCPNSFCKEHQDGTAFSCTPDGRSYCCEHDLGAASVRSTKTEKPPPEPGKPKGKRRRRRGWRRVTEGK

[13] = target: Heat shock protein HSP 90-alpha (Homo sapiens, UniProt P07900); assay type: functional, organism-based
[14] = target: FAD-linked sulfhydryl oxidase ALR (Homo sapiens, UniProt P55789); experiment: ALR-catalysed DTT oxidation blockers – biochemical, H2O2 detection, luminescence, cherry-pick, dose response (AID 493248)
FAD-linked sulfhydryl oxidase ALR, sequence (P55789 whole entry): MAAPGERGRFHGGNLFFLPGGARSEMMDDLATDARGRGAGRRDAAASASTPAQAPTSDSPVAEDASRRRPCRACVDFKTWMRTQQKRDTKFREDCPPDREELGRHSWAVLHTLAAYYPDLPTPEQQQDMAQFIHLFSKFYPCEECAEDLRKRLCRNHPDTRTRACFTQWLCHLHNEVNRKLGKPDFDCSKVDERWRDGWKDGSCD

[15] = test system: SN12K1; experiment: cells; assay type: functional; details: Homo sapiens
[16] = test system: Streptococcus sp. 'group A'; experiment: Streptococcus pyogenes SK(-)GAS viability under kanamycin – luminescence, BacTiterGlo, confirmation, counter-screen for streptokinase expression inhibitor project, dose response (AID 1900); assay type: functional, organism-based
[17] = test system: BJ; experiment: BJ-TERT fibroblast viability loss – cell-based, RAS-independent, luminescence, dose response (AID 1933); assay type: functional; details: Homo sapiens
[18] = test system: BJ; experiment: cells; assay type: functional, cell-based; details: Homo sapiens
[19] = test system: BJ; experiment: BJ-TERT-LT-ST fibroblast viability loss – cell-based, RAS-independent, luminescence, dose response (AID 1935); assay type: functional; details: Homo sapiens;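 also: BJ fibroblasts immortalized with TERT plus LT and ST oncogenes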
[20] = DRD fibroblast viability loss – cell-based, non-viral oncogenic, luminescence, dose response (AID 1934); assay type: functional; details: Homo sapiens
[21] = test system: Streptococcus; experiment: GAS UMAA2166 growth inhibition – luminescence, BacTiterGlo, counter-screen for streptokinase expression inhibitor project, dose response (AID 1915); assay type: functional, organism-based;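 also: potency for reduction of bacterial viability or growth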

Structure (SMILES): O=C(C(=O)N1CCOCC1)c1cn(Cc2ccccc2Cl)c2ccccc12
- IC50 [1]: > 20 µM (inactive)

Structure (SMILES): COc1ccc(-c2csc(Cc3nnc4n3CCCCC4)n2)cc1
- IC50 [2]: 9.12 µM (active)

Structure (SMILES): O=C(NCC1CCCCC1)C1(CC2CC(c3ccc(Cl)cc3)=NO2)CCNCC1 (stereo not drawn)
- IC50 [1]: > 20 µM (inactive)

Structure (SMILES): COc1ccccc1CCNC(=O)c1ccc(OC)c(OC2CCN(C(C)C)CC2)c1
- IC50 [2]: 13.5 µM (active)

Structure (SMILES): COC(=O)c1ccc(C(=O)OC)c(NC(=O)COC(=O)C23CC4CC(CC(O)(C4)C2)C3)c1
- IC50 [3]: > 79 µM (inactive)

Structure (SMILES): O=C(CSc1nc2ccsc2c(=O)n1Cc1ccccc1)NCC1CCCO1 (stereo not drawn)
- IC50 [1]: > 20 µM (inactive)

Structure (SMILES): CN(C)S(=O)(=O)c1ccc(N2CCCC2)c(C(=O)NCCc2ccc(F)cc2)c1
- AC50 [4]: 5.95 µM (active)
- AC50 [5]: 5.76 µM (active)
- AC50 [6]: 9.35 µM (active)
- AC50 [7]: 6.5 µM (active)

Structure (SMILES): NC(=O)c1ccsc1NC(=O)c1cc(=O)c2ccccc2o1
- IC50 [8]: > 66.6 µM (inactive)
- IC50 [9]: 11.7 µM (active)

Structure (SMILES): CCN(CC)S(=O)(=O)c1ccc(NC2c3ccccc3C(=O)N2Cc2ccc3c(c2)OCO3)cc1 (stereo not drawn)
- AC50 [4]: 1.33 µM (active)
- AC50 [5]: 7.39 µM (active)
- AC50 [6]: 3.71 µM (active)

Structure (SMILES): CCOc1ccc(/C=C2\SC(=S)N(NS(=O)(=O)c3ccccc3)C2=O)cc1OC
- IC50 [2]: 5.37 µM (active)
- IC50 [10]: 71.2 µM (active)

Structure (SMILES): COc1ccc(CCn2c(Br)nc3c2c(=O)[nH]c(=O)n3C)cc1
- IC50 [3]: > 79 µM (inactive)

Structure (SMILES): Cc1sc2ncnc(N3CCC(C(=O)Nc4cc(S(C)(=O)=O)ccc4Cl)CC3)c2c1C
- AC50 [4]: 8.97 µM (active)
- AC50 [5]: 3.3 µM (active)
- AC50 [6]: 30.5 µM (active)
- AC50 [7]: 12.3 µM (active)

Structure (SMILES): COc1ccc(C)cc1NCc1ccc(OC)c(C)c1OC
- IC50 [11]: 59.5 µM (active)
- AC50 [12]: > 20 µM (inactive)

Structure (SMILES): CN(C)C(=O)C1C2N=C(S)N(c3cccc(Cl)c3)C1(C)Oc1ccc(Cl)cc12 (stereo not drawn)
- IC50 [3]: 54.6 µM (inactive)

Structure (SMILES): O=C(CN1CCN(c2ncc(C(F)(F)F)cc2Cl)CC1)NCCNc1ncc(C(F)(F)F)cc1Cl
- AC50 [13]: 5.87 µM (active)

Structure (SMILES): Cc1ccnc(NCc2c(O)ccc3ccccc23)c1
- IC50 [1]: > 20 µM (inactive)

Structure (SMILES): O=C(COc1cccc2c1CCNC2=O)Nc1cccc(F)c1
- IC50 [3]: > 79 µM (inactive)

Structure (SMILES): O=C(O)CP(=O)(c1ccccc1)c1ccccc1
- IC50 [8]: > 66.6 µM (inactive)
- IC50 [9]: 100 µM (inactive)

Structure (SMILES): CCn1c(=O)c(C(=O)NC(C)c2ccccc2)c(O)c2ccccc21 (stereo not drawn)
- IC50 [3]: 13.5 µM (active)

Structure (SMILES): CC1(C)CC(=O)c2cnn(-c3nc4ccccc4[nH]3)c2C1
- AC50 [14]: 14.8 µM (active)

Structure (SMILES): CCOC(=O)C(C)Oc1ccc(C2NC(=O)NC(C)=C2C(C)=O)cc1Br (stereo not drawn)
- IC50 [3]: 30.6 µM (inactive)

Structure (SMILES): COc1ccc(S(=O)(=O)N2CCCCC2)cc1NC(=O)Cc1ccsc1
- AC50 [12]: 17.1 µM (active)

Structure (SMILES): O=c1cc(O)ccn1C1C=C(CO)C(O)C1O (stereo not drawn)
- GI50 [15]: > 625 µM (inactive)

Structure (SMILES): CC1(C)C2CC[C@]3(C)[C@H](C(=O)C=C4[C@@H]5C[C@@](C)(C(=O)O)CC[C@]5(C)CC[C@]43C)[C@@]2(C)CC[C@@H]1O[C@H]1O[C@H](C(=O)O)[C@@H](O)[C@H](O)[C@H]1O[C@@H]1O[C@H](C(=O)O)[C@@H](O)[C@H](O)[C@H]1O (stereo partly drawn)
- IC50 [8]: > 66.6 µM (inactive)
- IC50 [9]: 9.45 µM (active)

Structure (SMILES): COC(=O)C1=C(C)N(Cc2ccc(Cl)cc2)C(=S)NC1c1ccc(OC)cc1 (stereo not drawn)
- AC50 [4]: 3.25 µM (active)
- AC50 [5]: 5.23 µM (active)
- AC50 [6]: 5.7 µM (active)
- AC50 [7]: 12.6 µM (active)

Structure (SMILES): Oc1cccc2ccc(/C=C/c3ccccc3Br)nc12
- EC50 [16]: 0.212 µM (active)
- EC50 [17]: 20 µM (active)
- EC50 [18]: 18.1 µM (active)
- EC50 [19]: 108 µM (active)
- EC50 [20]: 17.4 µM (active)
- EC50 [21]: 3.96 µM (active)
- AC50 [13]: 12.9 µM (active)

Reference: ChEMBL document CHEMBL1201862, “PubChem BioAssay data set” (2004)
